From patent US11000033B2, “Ketone or oxime compound, and herbicide” (NISSAN CHEMICAL CORPORATION, priority 2014, dated 2021)

Experiments:
Assay type in all cases: in vivo
[1] = tested on: Digitaria ciliaris; test: Test Example 5: herbicidal effect by foliage application, plastic box (symbol F); settings: 320 g/ha, 3 weeks after application
Outline: (§1)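 Seeds were sown in sterilized diluvial soil, covered with about 1.5 cm of soil and grown 14 days in a greenhouse at 25° C. to 30° C. An emulsifiable formulation diluted in water to a set rate was sprayed over foliage, and injury was scored 3 weeks later.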

[2] = tested on: Lolium multiflorum Lam.; test: Test Example 4: herbicidal effect by soil treatment (symbol K); settings: application herbicide amount 320 g/ha
Outline: (§2)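 Seeds were sown in sterilized diluvial soil, covered with about 1.5 cm of soil, and the soil surface was sprayed with a water-diluted emulsion of the compound at a predetermined rate. Plants grew in a greenhouse at 25° C. to 30° C.; effects were scored visually 3 weeks after application.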

[3] = tested on: Apera spica-venti; test: Test Example 5: herbicidal effect by foliage application, plastic box (symbol L); settings: 320 g/ha, 3 weeks after application
Outline: as §1

[4] = tested on: Amaranthus retroflexus; test: Test Example 5: herbicidal effect by foliage application, plastic box (symbol N); settings: 320 g/ha, 3 weeks after application
Outline: as §1

[5] = tested on: directly sowed rice plant; test: Test Example 3: effect on crop by foliage application, Wagner pot (symbol b); settings: application herbicide amount 320 g/ha
Outline: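 Alluvial soil in a 1/10000-are Wagner pot was flooded to a water depth of 0.1–0.5 cm. Echinochloa crus-galli var. crus-galli, Leptochloa chinensis, Cyperus difformis and rice were sown into it and grown in a greenhouse at 25–30 °C.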

[6] = tested on: Stellaria media; test: Test Example 5: herbicidal effect by foliage application, plastic box (symbol P); settings: 320 g/ha, 3 weeks after application
Outline: as §1

[7] = tested on: Chenopodium album; test: Test Example 5: herbicidal effect by foliage application, plastic box (symbol O); settings: 320 g/ha, 3 weeks after application
Outline: as §1

[8] = tested on: Avena fatua; test: Test Example 5: herbicidal effect by foliage application, plastic box (symbol I); settings: 320 g/ha, 3 weeks after application
Outline: as §1

[9] = tested on: Veronica persica; test: Test Example 5: herbicidal effect by foliage application, plastic box (symbol R); settings: 320 g/ha, 3 weeks after application
Outline: as §1

[10] = tested on: beet; test: Test Example 4: effect on crop by soil treatment (symbol f); settings: application herbicide amount 320 g/ha
Outline: (§3)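 Greenhouse culture at 25° C. to 30° C. followed sowing of seed in spots on sterilized diluvial soil with a soil cover close to 1.5 cm thick.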

[11] = tested on: rapeseed; test: Test Example 5: effect on crop by foliage application, plastic box (symbol g); settings: 320 g/ha, 3 weeks after application
Outline: (§4)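 Plants were raised from seed in a greenhouse (25° C. to 30° C.) after sowing in a plastic box of sterilized diluvial soil.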

[12] = tested on: Monochoria vaginalis; test: Test Example 2: herbicidal activity, application during weed generation in submerged conditions (symbol C); settings: Table 23; application herbicide amount 320 g/ha; grade 0-5 by criteria of Test Example 1
Outline: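 Treatment timing was the one- to two-leaf stage, with diluted emulsifiable compound dropped onto the paddy water (depth 4 cm) over alluvial soil. All three species grew from a mixed sowing in a 25° C. to 30° C. greenhouse. Injury was judged by eye 3 weeks on.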

[13] = tested on: Abutilon theophrasti; test: Test Example 5: herbicidal effect by foliage application, plastic box (symbol M); settings: 320 g/ha, 3 weeks after application
Outline: as §1

[14] = tested on: wheat; test: Test Example 5: effect on crop by foliage application, plastic box (symbol e); settings: 320 g/ha, 3 weeks after application
Outline: as §4

[15] = tested on: rapeseed; test: Test Example 4: effect on crop by soil treatment (symbol g); settings: application herbicide amount 320 g/ha
Outline: as §3

[16] = tested on: Digitaria ciliaris; test: Test Example 4: herbicidal effect by soil treatment (symbol F); settings: application herbicide amount 320 g/ha
Outline: as §2

[17] = tested on: rice; test: Test Example 4: effect on crop by soil treatment (symbol b); settings: application herbicide amount 320 g/ha
Outline: as §3

[18] = tested on: Alopecurus myosuroides; test: Test Example 4: herbicidal effect by soil treatment (symbol J); settings: application herbicide amount 320 g/ha
Outline: as §2

[19] = tested on: Echinochloa crus-galli var. crus-galli; test: Test Example 4: herbicidal effect by soil treatment (symbol H); settings: application herbicide amount 320 g/ha
Outline: as §2

[20] = tested on: Lolium multiflorum Lam.; test: Test Example 5: herbicidal effect by foliage application, plastic box (symbol K); settings: 320 g/ha, 3 weeks after application
Outline: as §1

[21] = tested on: Avena fatua; test: Test Example 4: herbicidal effect by soil treatment (symbol I); settings: application herbicide amount 320 g/ha
Outline: as §2

[22] = tested on: Galium spurium; test: Test Example 5: herbicidal effect by foliage application, plastic box (symbol Q); settings: 320 g/ha, 3 weeks after application
Outline: as §1

SMILES: CON=C(C)CC1CC(OC(=O)N2CCOCC2)=C(c2c(C)cc(C)cc2OC)C1=O (stereo not drawn) [6-094]
- F: Digitaria ciliaris, herbicidal effect (criteria of Test Example 1) [1]: 5 (Herbicidal ratio of 90% or more (almost completely withered))
- Herbicidal effect grade, K: Lolium multiflorum Lam. [2]: 5 (Herbicidal ratio of 90% or more (almost completely withered))
- L: Apera spica-venti, herbicidal effect (criteria of Test Example 1) [3]: 5 (Herbicidal ratio of 90% or more (almost completely withered))
- N: Amaranthus retroflexus, herbicidal effect (criteria of Test Example 1) [4]: 0 (Herbicidal ratio of 5% or lower (almost no effect))
- effect on crop b (directly sowed rice plant), grade 0-5 [5]: 5 (Herbicidal ratio of 90% or more (almost completely withered))
- P: Stellaria media, herbicidal effect (criteria of Test Example 1) [6]: 3 (Herbicidal ratio of 40% or higher and lower than 70%)
- O: Chenopodium album, herbicidal effect (criteria of Test Example 1) [7]: 5 (Herbicidal ratio of 90% or more (almost completely withered))
- I: Avena fatua, herbicidal effect (criteria of Test Example 1) [8]: 5 (Herbicidal ratio of 90% or more (almost completely withered))
- R: Veronica persica, herbicidal effect (criteria of Test Example 1) [9]: 4 (Herbicidal ratio of 70% or higher and lower than 90%)
- Effect on crop grade, f: beet [10]: 0 (Herbicidal ratio of 5% or lower (almost no effect))
- g: rapeseed, effect on crop (criteria of Test Example 1) [11]: 4 (Herbicidal ratio of 70% or higher and lower than 90%)
- Herbicidal effect grade, C: Monochoria vaginalis [12]: 1 (Herbicidal ratio of 5% or higher and lower than 20%)
- M: Abutilon theophrasti, herbicidal effect (criteria of Test Example 1) [13]: 4 (Herbicidal ratio of 70% or higher and lower than 90%)
- e: wheat, effect on crop (criteria of Test Example 1) [14]: 4 (Herbicidal ratio of 70% or higher and lower than 90%)
- Effect on crop grade, g: rapeseed [15]: 4 (Herbicidal ratio of 70% or higher and lower than 90%)
- Herbicidal effect grade, F: Digitaria ciliaris [16]: 5 (Herbicidal ratio of 90% or more (almost completely withered))
- Effect on crop grade, b: directly sowed rice plant [17]: 5 (Herbicidal ratio of 90% or more (almost completely withered))
- Herbicidal effect grade, J: Alopecurus myosuroides [18]: 5 (Herbicidal ratio of 90% or more (almost completely withered))
- Herbicidal effect grade, H: Echinochloa crus-galli var. crus-galli [19]: 5 (Herbicidal ratio of 90% or more (almost completely withered))
- K: Lolium multiflorum Lam., herbicidal effect (criteria of Test Example 1) [20]: 5 (Herbicidal ratio of 90% or more (almost completely withered))
- Herbicidal effect grade, I: Avena fatua [21]: 5 (Herbicidal ratio of 90% or more (almost completely withered))
- Q: Galium spurium, herbicidal effect (criteria of Test Example 1) [22]: 5 (Herbicidal ratio of 90% or more (almost completely withered))

SMILES: CON=C(C)CC1CC(OC(=O)COc2ccccc2)=C(c2c(C)cc(C)cc2OC)C1=O (stereo not drawn) [6-091]
- F: Digitaria ciliaris, herbicidal effect (criteria of Test Example 1) [1]: 5 (Herbicidal ratio of 90% or more (almost completely withered))
- Herbicidal effect grade, K: Lolium multiflorum Lam. [2]: 5 (Herbicidal ratio of 90% or more (almost completely withered))
- L: Apera spica-venti, herbicidal effect (criteria of Test Example 1) [3]: 5 (Herbicidal ratio of 90% or more (almost completely withered))
- N: Amaranthus retroflexus, herbicidal effect (criteria of Test Example 1) [4]: 2 (Herbicidal ratio of 20% or higher and lower than 40%)
- effect on crop b (directly sowed rice plant), grade 0-5 [5]: 5 (Herbicidal ratio of 90% or more (almost completely withered))
- P: Stellaria media, herbicidal effect (criteria of Test Example 1) [6]: 4 (Herbicidal ratio of 70% or higher and lower than 90%)
- O: Chenopodium album, herbicidal effect (criteria of Test Example 1) [7]: 3 (Herbicidal ratio of 40% or higher and lower than 70%)
- I: Avena fatua, herbicidal effect (criteria of Test Example 1) [8]: 5 (Herbicidal ratio of 90% or more (almost completely withered))
- R: Veronica persica, herbicidal effect (criteria of Test Example 1) [9]: 4 (Herbicidal ratio of 70% or higher and lower than 90%)
- Effect on crop grade, f: beet [10]: 1 (Herbicidal ratio of 5% or higher and lower than 20%)
- g: rapeseed, effect on crop (criteria of Test Example 1) [11]: 5 (Herbicidal ratio of 90% or more (almost completely withered))
- Herbicidal effect grade, C: Monochoria vaginalis [12]: 3 (Herbicidal ratio of 40% or higher and lower than 70%)
- M: Abutilon theophrasti, herbicidal effect (criteria of Test Example 1) [13]: 4 (Herbicidal ratio of 70% or higher and lower than 90%)
- e: wheat, effect on crop (criteria of Test Example 1) [14]: 5 (Herbicidal ratio of 90% or more (almost completely withered))
- Effect on crop grade, g: rapeseed [15]: 4 (Herbicidal ratio of 70% or higher and lower than 90%)
- Herbicidal effect grade, F: Digitaria ciliaris [16]: 5 (Herbicidal ratio of 90% or more (almost completely withered))
- Effect on crop grade, b: directly sowed rice plant [17]: 5 (Herbicidal ratio of 90% or more (almost completely withered))
- Herbicidal effect grade, J: Alopecurus myosuroides [18]: 5 (Herbicidal ratio of 90% or more (almost completely withered))
- Herbicidal effect grade, H: Echinochloa crus-galli var. crus-galli [19]: 5 (Herbicidal ratio of 90% or more (almost completely withered))
- K: Lolium multiflorum Lam., herbicidal effect (criteria of Test Example 1) [20]: 5 (Herbicidal ratio of 90% or more (almost completely withered))
- Herbicidal effect grade, I: Avena fatua [21]: 5 (Herbicidal ratio of 90% or more (almost completely withered))
- Q: Galium spurium, herbicidal effect (criteria of Test Example 1) [22]: 3 (Herbicidal ratio of 40% or higher and lower than 70%)

SMILES: CON=C(C)CC1CC(O)=C(c2c(C)cc(-c3ccc(F)c(Cl)c3)cc2C)C1=O (stereo not drawn) [6-085]
- F: Digitaria ciliaris, herbicidal effect (criteria of Test Example 1) [1]: 5 (Herbicidal ratio of 90% or more (almost completely withered))
- Herbicidal effect grade, K: Lolium multiflorum Lam. [2]: 5 (Herbicidal ratio of 90% or more (almost completely withered))
- L: Apera spica-venti, herbicidal effect (criteria of Test Example 1) [3]: 5 (Herbicidal ratio of 90% or more (almost completely withered))
- N: Amaranthus retroflexus, herbicidal effect (criteria of Test Example 1) [4]: 3 (Herbicidal ratio of 40% or higher and lower than 70%)
- effect on crop b (directly sowed rice plant), grade 0-5 [5]: 5 (Herbicidal ratio of 90% or more (almost completely withered))
- P: Stellaria media, herbicidal effect (criteria of Test Example 1) [6]: 3 (Herbicidal ratio of 40% or higher and lower than 70%)
- O: Chenopodium album, herbicidal effect (criteria of Test Example 1) [7]: 5 (Herbicidal ratio of 90% or more (almost completely withered))
- I: Avena fatua, herbicidal effect (criteria of Test Example 1) [8]: 5 (Herbicidal ratio of 90% or more (almost completely withered))
- R: Veronica persica, herbicidal effect (criteria of Test Example 1) [9]: 4 (Herbicidal ratio of 70% or higher and lower than 90%)
- Effect on crop grade, f: beet [10]: 3 (Herbicidal ratio of 40% or higher and lower than 70%)
- g: rapeseed, effect on crop (criteria of Test Example 1) [11]: 5 (Herbicidal ratio of 90% or more (almost completely withered))
- Herbicidal effect grade, C: Monochoria vaginalis [12]: 1 (Herbicidal ratio of 5% or higher and lower than 20%)
- M: Abutilon theophrasti, herbicidal effect (criteria of Test Example 1) [13]: 4 (Herbicidal ratio of 70% or higher and lower than 90%)
- e: wheat, effect on crop (criteria of Test Example 1) [14]: 5 (Herbicidal ratio of 90% or more (almost completely withered))
- Effect on crop grade, g: rapeseed [15]: 4 (Herbicidal ratio of 70% or higher and lower than 90%)
- Herbicidal effect grade, F: Digitaria ciliaris [16]: 5 (Herbicidal ratio of 90% or more (almost completely withered))
- Effect on crop grade, b: directly sowed rice plant [17]: 1 (Herbicidal ratio of 5% or higher and lower than 20%)
- Herbicidal effect grade, J: Alopecurus myosuroides [18]: 5 (Herbicidal ratio of 90% or more (almost completely withered))
- Herbicidal effect grade, H: Echinochloa crus-galli var. crus-galli [19]: 5 (Herbicidal ratio of 90% or more (almost completely withered))
- K: Lolium multiflorum Lam., herbicidal effect (criteria of Test Example 1) [20]: 5 (Herbicidal ratio of 90% or more (almost completely withered))
- Herbicidal effect grade, I: Avena fatua [21]: 5 (Herbicidal ratio of 90% or more (almost completely withered))
- Q: Galium spurium, herbicidal effect (criteria of Test Example 1) [22]: 4 (Herbicidal ratio of 70% or higher and lower than 90%)
